# System: 786-0 complex spheroids with HUVEC/MSC, growth % test/control
# Assay: Anticancer human tumor 786-0 cell line growth inhibition [AhR];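 also: compound exposure lasted seven days before the read-out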
# Details: for IC50: curve of first compound; for viability, T/C: stronger effect = lower value
# How it was run: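 Agents were dosed in half-log steps down from roughly clinical Cmax, or from 10 microM where Cmax was unknown, alone and with AhR antagonists. Read-out: percent test/control growth of tumor spheroids containing HUVEC and MSC stromal cells.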
# [1] = second compound 0.1 µM, first compound 0.0316 µM
# [2] = second compound 0.1 µM, first compound 0.1 µM
# [3] = second compound 0.1 µM, first compound 0.316 µM
# [4] = second compound 0.1 µM, first compound 1 µM
# [5] = second compound 0.1 µM, first compound 3.16 µM
# [6] = second compound 0.1 µM, first compound 10 µM
# [7] = second compound 0.316 µM, first compound 0.0316 µM
# [8] = second compound 0.316 µM, first compound 0.1 µM
# [9] = second compound 0.316 µM, first compound 0.316 µM
# [10] = second compound 0.316 µM, first compound 1 µM
# [11] = second compound 0.316 µM, first compound 3.16 µM
# [12] = second compound 0.316 µM, first compound 10 µM
# [13] = second compound 1 µM, first compound 0.0316 µM
# [14] = second compound 1 µM, first compound 0.1 µM
# [15] = second compound 1 µM, first compound 0.316 µM
# [16] = second compound 1 µM, first compound 1 µM
# [17] = second compound 1 µM, first compound 3.16 µM
# [18] = second compound 1 µM, first compound 10 µM
# [19] = second compound 3.16 µM, first compound 0.0316 µM
# [20] = second compound 3.16 µM, first compound 0.1 µM
# [21] = second compound 3.16 µM, first compound 0.316 µM
# [22] = second compound 3.16 µM, first compound 1 µM
# [23] = second compound 3.16 µM, first compound 3.16 µM
# [24] = second compound 3.16 µM, first compound 10 µM
# [25] = second compound 10 µM, first compound 0.0316 µM
# [26] = second compound 10 µM, first compound 0.1 µM
# [27] = second compound 10 µM, first compound 0.316 µM
# [28] = second compound 10 µM, first compound 1 µM
# [29] = second compound 10 µM, first compound 3.16 µM
# [30] = second compound 10 µM, first compound 10 µM
Compound,IC50 (second compound 0.1 µM),IC50 (second compound 0.316 µM),IC50 (second compound 1 µM),IC50 (second compound 3.16 µM),IC50 (second compound 10 µM),"viability, T/C [1]","viability, T/C [2]","viability, T/C [3]","viability, T/C [4]","viability, T/C [5]","viability, T/C [6]","viability, T/C [7]","viability, T/C [8]","viability, T/C [9]","viability, T/C [10]","viability, T/C [11]","viability, T/C [12]","viability, T/C [13]","viability, T/C [14]","viability, T/C [15]",also measured
Nc1ccccc1NC(=O)c1ccc(CNC(=O)OCc2cccnc2)cc1 + Cc1cncc(-c2nc(NCCc3c[nH]c4ccccc34)c3ncn(C(C)C)c3n2)c1,7.2 µM,7.82 µM,6.75 µM,4.61 µM,< 0.0316 µM,119%,114%,125%,115%,106%,27.8%,118%,114%,128%,126%,115%,32%,106%,113%,121%,"viability, T/C [16]: 108%; viability, T/C [17]: 97%; viability, T/C [18]: 25.6%; viability, T/C [19]: 68.1%; viability, T/C [20]: 71.4%; viability, T/C [21]: 65.4%; viability, T/C [22]: 60.5%; viability, T/C [23]: 69.2%; viability, T/C [24]: 15.2%; viability, T/C [25]: 8.31%; viability, T/C [26]: 9.06%; viability, T/C [27]: 3.52%; viability, T/C [28]: 0.75%; viability, T/C [29]: 0.39%; viability, T/C [30]: 0.77%"
O=C(C=Cc1cccc(S(=O)(=O)Nc2ccccc2)c1)NO + Cc1cncc(-c2nc(NCCc3c[nH]c4ccccc34)c3ncn(C(C)C)c3n2)c1,7.06 µM,7.68 µM,6.53 µM,1.6 µM,< 0.0316 µM,120%,113%,112%,119%,103%,26.5%,113%,118%,113%,113%,112%,31.4%,113%,111%,106%,"viability, T/C [16]: 106%; viability, T/C [17]: 96.7%; viability, T/C [18]: 22.4%; viability, T/C [19]: 69.2%; viability, T/C [20]: 68.2%; viability, T/C [21]: 59.4%; viability, T/C [22]: 53.7%; viability, T/C [23]: 45%; viability, T/C [24]: 11.8%; viability, T/C [25]: 13.8%; viability, T/C [26]: 8.02%; viability, T/C [27]: 5.17%; viability, T/C [28]: 0.6%; viability, T/C [29]: 2.92%; viability, T/C [30]: 1.45%"
O=C(c1cc(Cc2n[nH]c(=O)c3ccccc23)ccc1F)N1CCN(C(=O)C2CC2)CC1 + Cc1cncc(-c2nc(NCCc3c[nH]c4ccccc34)c3ncn(C(C)C)c3n2)c1,> 10 µM,> 10 µM,> 10 µM,> 10 µM,< 0.0316 µM,125%,119%,133%,125%,120%,131%,115%,126%,123%,126%,128%,120%,112%,123%,112%,"viability, T/C [16]: 112%; viability, T/C [17]: 121%; viability, T/C [18]: 108%; viability, T/C [19]: 80.2%; viability, T/C [20]: 82.3%; viability, T/C [21]: 82.8%; viability, T/C [22]: 85.1%; viability, T/C [23]: 79.3%; viability, T/C [24]: 77.9%; viability, T/C [25]: 10.6%; viability, T/C [26]: 18%; viability, T/C [27]: 9.64%; viability, T/C [28]: 16.9%; viability, T/C [29]: 15.3%; viability, T/C [30]: 13%"
